# Source: paper PMC5259778, “Candidate pheromone receptors of codling moth Cydia pomonella respond to pheromones and kairomones” (Scientific Reports, 2017)
# Tests used:
# [1] = test system: Un-transfected cells (HEK293T); experiment: Whole-cell patch-clamp recording of un-transfected HEK293T cells; type: cell-based, human; details: 12 cells tested
# Procedure: The OR channel activity was investigated using whole-cell and outside-out patch-clamp recordings. The currents were measured with a 200B patch-clamp amplifier (Molecular Devices) and a digital interface (Digidata 1320 A, Molecular Devices), low pass filtered at 5.0 kHz, sampled at 1-2 kHz. […] OR channel related currents were investigated at a holding potential of -50/+50 mV unless otherwise specified. The polarity of the currents/voltages was presented relative to intracellular membrane surface. Appropriate corrections for liquid junction potentials were made when necessary. Patch pipettes were fabricated from borosilicate capillary glass (BF150-86-10, Sutter Instrument, CA, USA) using a Flaming-Brown micropipette puller (P-87, Sutter Instrument). Only patches with initial cell-attached seal resistance estimated higher than 1.0 GOhms were used in the experiments. Intracellular (pipette) solution for whole-cell experiments was NaCl 140 mM, EGTA 0.5 mM, Hepes 10 mM, pH 7.4 (adjusted with Tris-base, standard Na^+ 140 mM), while bath solution was usually NaCl 140 mM, CaCl2 1.0 mM, MgCl2 0-1.0 mM, KCl 5.0 mM, Hepes 10 mM, pH 7.4 (adjusted with Tris-base or NaOH). The OR channel current noise was recorded using outside-out patches excised from HEK293T cells and evoked by stimulation with 250 μM VUAA3. […]
# CpomOrco + OR1 = experiment: Whole-cell patch-clamp recording of HEK293T cells expressing CpomOrco + OR1; type: cell-based, Cydia pomonella; details: VUAA3 200 μM, n = 37
# Procedure: To test transient expression of CpomORs for calcium imaging or patch-clamp recording experiments, 35-mm petri dishes containing semi-confluent HEK293T cells were transiently transfected. To transfect cells with CpomOrco, we used 1.0 μg of pcDNA5/TO/CpomOrco DNA. In order to promote expression of the OR[51], we used double aliquots for pcDNA5/TO/CpomOR DNAs (2.0 μg), combined with 1.0 μg of pcDNA5/TO/CpomOrco for co-transfections (CpomOrco + ORs). […] In patch-clamp recordings, 1.0 μg of a separate plasmid DNA (pXOOM, Clontech) carrying the coding sequence for a green fluorescent protein (GFP) was used to report expression. In order to report candidate OR-expressing cells, expression of both fluorescent reporter genes was under the regulation of the same promoter for CpomOR genes (CMV). Transfection DNAs were dissolved in 100 μL sterile DMEM, mixed with 3.0 μL Calfectin (SignaGen, Rockville, MD, USA) following the recommended protocol. […] The currents were measured with a 200B patch-clamp amplifier (Molecular Devices) and a digital interface (Digidata 1320 A, Molecular Devices), low pass filtered at 5.0 kHz, sampled at 1-2 kHz. […] The OR channel current noise was recorded using outside-out patches excised from HEK293T cells and evoked by stimulation with 250 μM VUAA3. […]
structure (smiles),measurement,setting,value
"CCn1c(SCC(=O)Nc2ccc(C(C)C)cc2)nnc1-c1ccncc1 [VUAA3, acetamide,2-[[4-ethyl-5-(4-pyridinyl)-4H-1,2,4-triazol-3-yl]thio]-N-[4-(1-methylethyl)phenyl]-]",sensitivity of un-transfected cells,[1],not sensitive
same,"inward current amplitude, variation",CpomOrco + OR1,−49 to −1165 pA
same,inward current mean amplitude,CpomOrco + OR1,−431 ± 54 pA
